The values that follow come from US9580449B2, “Compositions and methods for the production of pyrimidine and pyridine compounds with BTK inhibitory activity” (Merck Patent GmbH, priority 2011, dated 2017).

For orientation: IC50 means the concentration at which inhibition is half-maximal.

Bounds are passed on as bounds.

Experiment [1] concerns the target full-length human BTK (Homo sapiens (Human), UniProt Q06187). In words: BTK IC50 enzyme assay (microfluidic off-chip mobility shift kinase assay). The format is biochemical. The settings on record: incubated for 90 min. at 27 C; read-out: Time Dependent BTK Enzyme Assay IC50. The essentials: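 Read-out separates phosphorylated peptide product from substrate by charge/mass in a mobility shift format with full-length human BTK.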

Experiment [2] relates to PBMC. In words: Time Dependent PBMC IC50 assay. In kind it is cell-based. On the procedure:
Compounds described by embodiments of the present invention were assayed using a time dependent PMBC assay.

full-length human BTK, sequence (Q06187 whole entry): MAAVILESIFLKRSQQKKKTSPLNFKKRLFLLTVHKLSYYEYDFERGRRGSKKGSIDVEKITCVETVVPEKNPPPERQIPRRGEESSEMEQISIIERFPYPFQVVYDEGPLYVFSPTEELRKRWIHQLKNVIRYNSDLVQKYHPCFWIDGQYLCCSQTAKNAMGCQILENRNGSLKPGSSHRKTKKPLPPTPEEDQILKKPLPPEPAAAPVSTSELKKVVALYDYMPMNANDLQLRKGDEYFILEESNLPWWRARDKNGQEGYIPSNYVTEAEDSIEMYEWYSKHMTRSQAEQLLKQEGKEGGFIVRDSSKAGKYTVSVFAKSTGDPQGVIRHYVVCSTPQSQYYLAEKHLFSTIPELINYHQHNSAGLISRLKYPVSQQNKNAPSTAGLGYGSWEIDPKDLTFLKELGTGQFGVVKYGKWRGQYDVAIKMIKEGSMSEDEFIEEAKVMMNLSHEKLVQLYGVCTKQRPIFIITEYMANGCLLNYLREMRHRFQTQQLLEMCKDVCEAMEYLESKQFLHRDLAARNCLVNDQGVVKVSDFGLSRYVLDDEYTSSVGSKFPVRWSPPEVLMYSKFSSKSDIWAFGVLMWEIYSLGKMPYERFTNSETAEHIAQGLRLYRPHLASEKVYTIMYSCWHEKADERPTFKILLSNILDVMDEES

`C=CC(=O)N1CCCCC(Nc2ncnc(N)c2-c2ccc(Oc3ccccc3)cc2)C1` (stereo not drawn) [A52, 1-(3-((6-amino-5-(4-phenoxyphenyl)pyrimidin-4-yl)amino)azepan-1-yl)prop-2-en-1-one]: the IC50 was < 100 nM in experiment [1] and < 1000 nM in experiment [2].
Consider `C=CC(=O)N[C@H]1CC[C@@H](Nc2ncnc(N)c2-c2ccc(Oc3ccccc3)cc2)CC1` [A266, N-((1s,4s)-4-((6-amino-5-(4-phenoxyphenyl)pyrimidin-4-yl)amino)cyclohexyl)acrylamide], for which, in experiment [2], the 50% inhibitory concentration (IC50) was < 1000 nM.
For `CC#CC(=O)N1CCC(CNc2ncnc(N)c2-c2ccc(Oc3ccccc3)cc2)CC1` [A336, 1-(4-(((6-amino-5-(4-phenoxyphenyl)pyrimidin-4-yl)amino)methyl)piperidin-1-yl)but-2-yn-1-one], the IC50 is < 100 nM in experiment [1] and < 1000 nM in experiment [2].
Consider `C=CC(=O)Nc1cccc(Oc2ncncc2-c2ccc(Oc3ccccc3)cc2)c1` [A255, N-(3-((5-(4-phenoxyphenyl)pyrimidin-4-yl)oxy)phenyl)acrylamide], for which the 50% inhibitory concentration (IC50) in experiment [2] is < 1000 nM.
In the case of `C=CC(=O)N[C@H]1C[C@H](Nc2ncnc(N)c2-c2ccc(Oc3ccccc3)cc2)C1` [A117, N-(1,3-trans-3-((6-amino-5-(4-phenoxyphenyl)pyrimidin-4-yl)amino)cyclobutyl)acrylamide], the values for the IC50 in experiment [1] and in experiment [2] were < 100 nM and < 1000 nM, respectively.
The like results for `CN(C)C/C=C/C(=O)N1CC2(CC(Oc3ncnc(N)c3-c3ccc(Oc4ccccc4)cc3)C2)C1` [A105, (E)-1-(6-((6-amino-5-(4-phenoxyphenyl)pyrimidin-4-yl)oxy)-2-azaspiro[3.3]heptan-2-yl)-4-(dimethylamino)but-2-en-1-one] were, in that order, < 100 nM and < 1000 nM.
`C=CC(=O)N1CCCC(Nc2ncnc(N)c2-c2ccc(Oc3ccccc3)cc2)C1` (stereo not drawn) [A253, 1-(3-((6-amino-5-(4-phenoxyphenyl)pyrimidin-4-yl)amino)piperidin-1-yl)prop-2-en-1-one]: the IC50 in experiment [2] is < 1000 nM.
Same read-out and setting: the result for `Nc1ncnc(NCC2CCN(C(=O)CCl)CC2)c1-c1ccc(Oc2ccccc2)cc1` [A45, 1-(4-(((6-amino-5-(4-phenoxyphenyl)pyrimidin-4-yl)amino)methyl)piperidin-1-yl)-2-chloroethanone] reads < 1000 nM.
For `C=CC(=O)N1C[C@H](Nc2ncnc(N)c2-c2ccc(Oc3ccccc3)cc2)[C@@H](O)C1` (relative stereo) [A75, 1-(trans-3-((6-amino-5-(4-phenoxyphenyl)pyrimidin-4-yl)amino)-4-hydroxypyrrolidin-1-yl)prop-2-en-1-one], the half-inhibitory concentration (IC50) was < 100 nM in experiment [1] and < 1000 nM in experiment [2].
On to `C=CC(=O)N1CC2(CC(Nc3ncnc(N)c3-c3ccc(Oc4ccccc4)cc3)C2)C1` [A124, 1-(6-((6-amino-5-(4-phenoxyphenyl)pyrimidin-4-yl)amino)-2-azaspiro[3.3]heptan-2-yl)prop-2-en-1-one], for which the IC50 in experiment [2] was < 1000 nM.
Turning to `C=CC(=O)N1CC[C@@H](COc2ncnc(N)c2-c2ccc(Oc3ccccc3)cc2)C1` [A38, (R)-1-(3-(((6-amino-5-(4-phenoxyphenyl)pyrimidin-4-yl)oxy)methyl)pyrrolidin-1-yl)prop-2-en-1-one], in experiment [2], the IC50 is < 1000 nM.
Turning to `C=CC(=O)Nc1cccc(Oc2ncnc(N)c2-c2cnn(Cc3cccc(F)c3)c2)c1` [A67, N-(3-((6-amino-5-(1-(3-fluorobenzyl)-1H-pyrazol-4-yl)pyrimidin-4-yl)oxy)phenyl)acrylamide], the values for the IC50 in experiment [1] and in experiment [2] were < 100 nM and < 1000 nM, respectively.
On the same counts, the results for `C=CC(=O)N1CC2(CC(Oc3ncnc(N)c3-c3ccc(Oc4ccncc4)cc3)C2)C1` [A114, 1-(6-((6-amino-5-(4-(pyridin-4-yloxy)phenyl)pyrimidin-4-yl)oxy)-2-azaspiro[3.3]heptan-2-yl)prop-2-en-1-one] are < 100 nM and > 1000 nM.
The like results for `C#CC(=O)N1CCC2(CC(Nc3ncnc(N)c3-c3ccc(Oc4ccccc4)cc3)C2)C1` (stereo not drawn) [A115, 1-(2-((6-amino-5-(4-phenoxyphenyl)pyrimidin-4-yl)amino)-6-azaspiro[3.4]octan-6-yl)prop-2-yn-1-one] were, in that order, < 100 nM and > 1000 nM.
As to `C=CS(=O)(=O)N1CCC(CNc2ncnc(N)c2-c2ccc(Oc3ccccc3)cc2)CC1` [A10, 5-(4-phenoxyphenyl)-N4-((1-(vinylsulfonyl)piperidin-4-yl)methyl)pyrimidine-4,6-diamine], the IC50 in experiment [2] is < 1000 nM.
For `C=CC(=O)Nc1cccc(Oc2ncnc(N)c2-c2ccc(Oc3ccccc3)cc2)c1` [A242, N-(3-((6-amino-5-(4-phenoxyphenyl)pyrimidin-4-yl)oxy)phenyl)acrylamide], the half-inhibitory concentration (IC50) in experiment [1] is < 100 nM; in experiment [2], < 1000 nM.
In the case of `C=CC(=O)N1CCC(CNc2ncnc(N)c2-c2ccc(Oc3ccccc3)cc2)C1` (stereo not drawn) [A262, 1-(3-(((6-amino-5-(4-phenoxyphenyl)pyrimidin-4-yl)amino)methyl)pyrrolidin-1-yl)prop-2-en-1-one], in experiment [2], the IC50 is < 1000 nM.
Take `C=CC(=O)N1CC[C@H](CNc2ncnc(N)c2-c2ccc(Oc3ccccc3)cc2)C1` [A4, (R)-1-(3-(((6-amino-5-(4-phenoxyphenyl)pyrimidin-4-yl)amino)methyl)pyrrolidin-1-yl)prop-2-en-1-one]: the IC50 in experiment [2] was < 1000 nM.
Still for that read-out and setting: the result for `C=CC(=O)N1CC[C@H](COc2ncnc(N)c2-c2ccc(Oc3ccccc3)cc2)C1` [A26, (S)-1-(3-(((6-amino-5-(4-phenoxyphenyl)pyrimidin-4-yl)oxy)methyl)pyrrolidin-1-yl)prop-2-en-1-one] reads < 1000 nM; that for `C=CC(=O)N1CC[C@@H](Nc2ncnc(N)c2-c2ccc(Oc3ccccc3)cc2)C1` [A1, (R)-1-(3-((6-amino-5-(4-phenoxyphenyl)pyrimidin-4-yl)amino)pyrrolidin-1-yl)prop-2-en-1-one], < 1000 nM; that for `C=CC(=O)N1CCC(CNc2ncnc(N)c2-c2ccc(Oc3cccc(F)c3)cc2)CC1` [A34, 1-(4-(((6-amino-5-(4-(3-fluorophenoxy)phenyl)pyrimidin-4-yl)amino)methyl)piperidin-1-yl)prop-2-en-1-one], < 1000 nM.
For the compound `C=CC(=O)N1CCC(CNc2ncnc(N)c2-c2ccc(Oc3ccccc3)cc2)CC1` [A250, 1-(4-(((6-amino-5-(4-phenoxyphenyl)pyrimidin-4-yl)amino)methyl)piperidin-1-yl)prop-2-en-1-one], in experiment [2], the IC50 is < 1000 nM.
Consider `C=CC(=O)N1CCC[C@@H](Nc2ncnc(N)c2-c2ccc(Oc3ccccc3)cc2)C1` [A247, (R)-1-(3-((6-amino-5-(4-phenoxyphenyl)pyrimidin-4-yl)amino)piperidin-1-yl)prop-2-en-1-one], for which the IC50 in experiment [2] was < 1000 nM.
In the case of `C=CC(=O)N[C@@H]1CCC[C@H](Nc2ncnc(N)c2-c2ccc(Oc3ccccc3)cc2)C1` (relative stereo) [A51, N-(cis-3-((6-amino-5-(4-phenoxyphenyl)pyrimidin-4-yl)amino)cyclohexyl)acrylamide], the concentration for half-maximal inhibition (IC50) in experiment [2] was < 1000 nM.
For the compound `C=CC(=O)Nc1cccc(Oc2ncnc(N)c2-c2cnn(Cc3cccc(C(=O)OC)c3)c2)c1` [A206, methyl 3-((4-(4-(3-acrylamidophenoxy)-6-aminopyrimidin-5-yl)-1H-pyrazol-1-yl)methyl)benzoate], the half-maximal inhibitory concentration (IC50) in experiment [1] is < 100 nM.
Consider `C=CC(=O)N1CCC2(CCN(c3ncnc(N)c3-c3ccc(Oc4ccccc4)cc3)C2)C1` (stereo not drawn) [A93, 1-(7-(6-amino-5-(4-phenoxyphenyl)pyrimidin-4-yl)-2,7-diazaspiro[4.4]nonan-2-yl)prop-2-en-1-one], for which the concentration for half-maximal inhibition (IC50) in experiment [1] is < 1000 nM.
Turning to `C=CC(=O)NCc1ccc(-c2cnccc2Oc2ccc(Oc3ccccc3)cc2)cc1` [A287, N-(4-(4-(4-phenoxyphenoxy)pyridin-3-yl)benzyl)acrylamide], the IC50 in experiment [1] is < 1000 nM.
For the compound `C=CC(=O)N1CCCC(COc2ncnc(N)c2-c2ccc(Oc3ccccc3)cc2)C1` (stereo not drawn) [A17, 1-(3-(((6-amino-5-(4-phenoxyphenyl)pyrimidin-4-yl)oxy)methyl)piperidin-1-yl)prop-2-en-1-one], in experiment [1], the IC50 was < 100 nM.
In the case of `C=CC(=O)N1CCO[C@H](COc2ncnc(N)c2-c2cnn(Cc3ccccc3)c2)C1` [A193, (S)-1-(2-(((6-amino-5-(1-benzyl-1H-pyrazol-4-yl)pyrimidin-4-yl)oxy)methyl)morpholino)prop-2-en-1-one], the IC50 in experiment [1] was > 1000 nM.
`CC#CC(=O)[C@H]1CCC[C@H](Nc2ncnc(N)c2-c2ccc(Oc3ccccc3)cc2)C1` [A145, 1-((1S,3S)-3-(6-Amino-5-(4-phenoxyphenyl)-pyrimidin-4-ylamino)-cyclohexyl)-but-2-yn-1-one]: in experiment [1], the IC50 is < 100 nM.
`Nc1ncnc(Oc2cccc(NC(=O)CCl)c2)c1-c1ccc(OCc2ccccc2)c(F)c1` [A351, N-{3-[6-Amino-5-(4-benzyloxy-3-fluoro-phenyl)-pyrimidin-4-yloxy]-phenyl}-2-chloro-acetamide]: the half-maximal inhibitory concentration (IC50) in experiment [1] was < 100 nM.
Still for that read-out and setting: under `C=CC(=O)Nc1cccc(Nc2ncncc2-c2ccc(Oc3ccccc3)cc2)n1` [A167, N-(6-((5-(4-phenoxyphenyl)pyrimidin-4-yl)amino)pyridin-2-yl)acrylamide] stands < 100 nM; under `C=CC(=O)NC1CC2(C1)CC(Nc1ncnc(N)c1-c1ccc(Oc3ccccc3)cc1)C2` (stereo not drawn) [A122, N-(6-((6-amino-5-(4-phenoxyphenyl)pyrimidin-4-v)amino)spiro[3.3]heptan-2-yl)acrylamide], > 1000 nM; under `C/C=C/C(=O)N1CCC(CNc2ncnc(N)c2-c2ccc(Oc3ccccc3)cc2)CC1` [A13, (E)-1-(4-(((6-amino-5-(4-phenoxyphenyl)pyrimidin-4-yl)amino)methyl)piperidin-1-yl)but-2-en-1-one], > 1000 nM.
Still for that read-out and setting: under `C=CC(=O)Nc1cccc(Oc2ncnc(N)c2-c2ccc(OCc3cccc(F)c3)cc2)c1` [A260, N-(3-((6-amino-5-(4-((3-fluorobenzyl)oxy)phenyl)pyrimidin-4-yl)oxy)phenyl)acrylamide] stands < 100 nM; under `C=CC(=O)Nc1cccc(Oc2ncnc(N)c2-c2cnn(Cc3cc(F)cc(F)c3)c2)c1` [A183, N-(3-((6-amino-5-(1-(3,5-difluorobenzyl)-1H-pyrazol-4-yl)pyrimidin-4-yl)oxy)phenyl)acrylamide], < 100 nM.
